Data published in paper PMC3914206.

Assays:
Type in all cases: binding
Set-up in all cases: KINOMEscan: ABL1(F317L)-phosphorylated / KINOMEscan: ABL1(H396P)-nonphosphorylated / KINOMEscan: ABL1(H396P)-phosphorylated / KINOMEscan: ABL1(M351T)-phosphorylated / KINOMEscan: ABL1(T315I)-phosphorylated / KINOMEscan: ABL1-nonphosphorylated / KINOMEscan: ABL1-phosphorylated / KINOMEscan: ACVR2A / KINOMEscan: ACVR2B / KINOMEscan: ADCK3 / KINOMEscan: ADCK4 / KINOMEscan: AKT1 / KINOMEscan: AKT3 / KINOMEscan: ALK / KINOMEscan: ARK5 / KINOMEscan: AURKA / KINOMEscan: AURKC / KINOMEscan: BIKE / KINOMEscan: BMPR1A / KINOMEscan: BMPR1B / KINOMEscan: BMX / KINOMEscan: BRK / KINOMEscan: BRSK1 / KINOMEscan: BRSK2 / KINOMEscan: CAMK1 / KINOMEscan: CAMK1D / KINOMEscan: CAMK1G / KINOMEscan: CAMK2A / KINOMEscan: CAMK2B / KINOMEscan: AAK1 / KINOMEscan: CAMK2D / KINOMEscan: CAMK2G / KINOMEscan: ABL1(F317I)-nonphosphorylated / KINOMEscan: ABL1(F317I)-phosphorylated / KINOMEscan: ABL1(F317L)-nonphosphorylated: unit: % Ctrl
panel of 442 kinases [1] = biological target: T1, panel of 442 kinases (Homo sapiens, UniProt Q13557); details: Compound Concentration 10 µM
T1 construct: purchased KINOMEscan
Excerpt: (§1) We assessed the selectivity of members of this scaffold using the KINOMEscan methodology across a near comprehensive panel of 442 kinases [[18,27]].

panel of 442 kinases [2] = biological target: T2, panel of 442 kinases (Homo sapiens, UniProt Q13177); details: Compound Concentration 10 µM
T2 construct: purchased KINOMEscan
Excerpt: as §1

panel of 442 kinases [3] = biological target: T3, panel of 442 kinases (Homo sapiens, UniProt Q9UEW8); details: kinase STK39; compound concentration 10 µM
T3 construct: purchased KINOMEscan
Excerpt: as §1

panel of 442 kinases [4] = biological target: T4, panel of 442 kinases (Homo sapiens, UniProt P00533, L858R); details: Compound Concentration 10 µM
T4 construct: purchased KINOMEscan
Excerpt: as §1

T2 sequence (Q13177 whole entry): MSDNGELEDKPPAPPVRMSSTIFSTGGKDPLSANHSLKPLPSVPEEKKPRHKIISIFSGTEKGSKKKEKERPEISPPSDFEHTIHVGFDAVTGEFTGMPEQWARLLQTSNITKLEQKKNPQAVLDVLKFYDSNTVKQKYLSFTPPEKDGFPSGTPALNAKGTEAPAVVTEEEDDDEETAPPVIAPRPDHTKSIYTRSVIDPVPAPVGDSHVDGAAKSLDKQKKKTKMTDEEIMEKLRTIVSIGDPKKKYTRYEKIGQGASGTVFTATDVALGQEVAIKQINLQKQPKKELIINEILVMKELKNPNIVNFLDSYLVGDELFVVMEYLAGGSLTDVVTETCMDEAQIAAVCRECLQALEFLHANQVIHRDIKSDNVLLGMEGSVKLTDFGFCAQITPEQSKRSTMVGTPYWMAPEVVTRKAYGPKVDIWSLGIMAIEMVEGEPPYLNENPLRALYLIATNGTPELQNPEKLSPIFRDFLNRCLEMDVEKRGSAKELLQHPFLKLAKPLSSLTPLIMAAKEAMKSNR
T4 sequence (P00533 25-1210 L858R): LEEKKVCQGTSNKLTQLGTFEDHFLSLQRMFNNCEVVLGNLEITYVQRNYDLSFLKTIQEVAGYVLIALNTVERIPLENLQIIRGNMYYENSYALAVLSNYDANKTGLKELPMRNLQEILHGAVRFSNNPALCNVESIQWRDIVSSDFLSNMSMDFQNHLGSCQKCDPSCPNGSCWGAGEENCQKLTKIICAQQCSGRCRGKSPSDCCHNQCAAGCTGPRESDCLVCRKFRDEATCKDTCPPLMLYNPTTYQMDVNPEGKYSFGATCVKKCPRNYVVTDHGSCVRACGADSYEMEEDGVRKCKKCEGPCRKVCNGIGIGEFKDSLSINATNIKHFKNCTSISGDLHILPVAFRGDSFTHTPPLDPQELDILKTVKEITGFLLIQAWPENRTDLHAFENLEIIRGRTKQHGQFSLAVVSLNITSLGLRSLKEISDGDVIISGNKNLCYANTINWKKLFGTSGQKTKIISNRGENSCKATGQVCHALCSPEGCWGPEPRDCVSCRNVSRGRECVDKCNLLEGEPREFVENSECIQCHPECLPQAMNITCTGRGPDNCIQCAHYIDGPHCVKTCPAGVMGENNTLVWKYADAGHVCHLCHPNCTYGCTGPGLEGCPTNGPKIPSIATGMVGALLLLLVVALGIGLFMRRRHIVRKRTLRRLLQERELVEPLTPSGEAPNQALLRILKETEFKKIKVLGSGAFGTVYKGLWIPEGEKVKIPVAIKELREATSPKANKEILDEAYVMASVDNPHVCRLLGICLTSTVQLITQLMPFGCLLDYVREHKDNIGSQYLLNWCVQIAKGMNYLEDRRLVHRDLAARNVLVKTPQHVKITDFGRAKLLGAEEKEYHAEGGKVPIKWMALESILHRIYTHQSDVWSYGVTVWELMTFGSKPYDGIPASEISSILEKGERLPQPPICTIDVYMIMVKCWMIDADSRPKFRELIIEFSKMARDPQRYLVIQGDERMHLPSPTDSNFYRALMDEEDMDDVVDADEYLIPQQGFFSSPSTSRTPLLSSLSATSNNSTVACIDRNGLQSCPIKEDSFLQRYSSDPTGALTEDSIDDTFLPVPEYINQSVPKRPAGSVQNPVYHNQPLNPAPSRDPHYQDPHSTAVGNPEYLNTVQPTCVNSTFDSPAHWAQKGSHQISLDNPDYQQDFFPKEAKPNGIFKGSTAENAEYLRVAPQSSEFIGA
T1 sequence (Q13557 whole entry): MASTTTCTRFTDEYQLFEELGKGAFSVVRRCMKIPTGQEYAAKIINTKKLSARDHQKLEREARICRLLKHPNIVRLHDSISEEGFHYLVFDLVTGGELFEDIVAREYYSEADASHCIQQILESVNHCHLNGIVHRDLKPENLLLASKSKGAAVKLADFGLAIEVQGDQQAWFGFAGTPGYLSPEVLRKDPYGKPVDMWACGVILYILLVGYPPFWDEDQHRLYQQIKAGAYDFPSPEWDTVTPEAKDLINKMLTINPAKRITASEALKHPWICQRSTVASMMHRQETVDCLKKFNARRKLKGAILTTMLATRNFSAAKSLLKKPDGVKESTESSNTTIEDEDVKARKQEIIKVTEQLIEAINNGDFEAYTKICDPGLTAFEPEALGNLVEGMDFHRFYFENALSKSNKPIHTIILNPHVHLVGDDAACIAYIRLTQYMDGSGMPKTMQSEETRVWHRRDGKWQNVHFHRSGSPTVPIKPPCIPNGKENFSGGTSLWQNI

SMILES | KINOMEscan: CAMK2D (panel of 442 kinases [1]) | KINOMEscan: PAK2 (panel of 442 kinases [2]) | % Ctrl, STK39 (panel of 442 kinases [3]) [% Ctrl] | KINOMEscan: EGFR(L858R) (panel of 442 kinases [4])
COc1cc(C(=O)N2CCC(N3CCN(C)CC3)CC2)ccc1Nc1ncc2c(n1)N(C1CCCC1)c1ccccc1C(=O)N2C [Compound 25, 11-cyclopentyl-2-((2-methoxy-4-(4-(4-methylpiperazin-1-yl)piperidine-1-carbonyl)phenyl)amino)-5-methyl-5H-benzo[e]pyrimido[5,4-b][1,4]diazepin-6(11H)-one] | 100 | 90 | 100 | 83
CCOc1cc(C(=O)N2CCC(N3CCN(C)CC3)CC2)ccc1Nc1ncc2c(n1)N(C1CCCC1)c1ccccc1C(=O)N2C [Compound 26] | 96 | 92 | 100 | 100
COc1cc(C(=O)N2CCC(N3CCN(C)CC3)CC2)ccc1Nc1ncc2c(n1)N1CCc3cccc(c31)C(=O)N2C [Compound 24] | 62 |  | 100 | 62
COc1cc(C(=O)N2CCC(N3CCN(C)CC3)CC2)ccc1Nc1ncc2c(n1)N(C)c1ccccc1C(=O)N2C [15 (LRRK2-IN-1)] | 28 | 65 | 39 | 79
